The record followed here is US20150087722A1, “TREATMENT FOR BREAST TUMOR CELL METASTASIS” (China Medical University, priority 2012, published 2015).

Common to all, as to assay type: cell-based, human
The subject of assay [1] is EMT-related proteins in breast tumor cells MDA-MB-231. The assay is described as follows: western blotting of EMT-related proteins. To be noted: MDA-MB-231, 0.5, 1 and 2 μM, 24 h, with dose increasing. On the procedure: FIG. 2A illustrates the expression results of EMT-related proteins in breast tumor cells MDA-MB-231 after the breast tumor cells MDA-MB-231 have been respectively cultured under compound II having concentrations of 0, 0.5, 1 and 2 μM for 24 h; and FIG. 2B illustrates the expression results of EMT-related proteins in breast tumor cells MCF-7 after the breast tumor cells MCF-7 have been respectively cultured under the compound II having concentrations of 0, 10, 15 and 20 μM for 24 h. FIG. 3A illustrates the western blotting results of EMT-related proteins in the breast tumor cells MDA-MB-468, where the breast tumor cells MDA-MB-468 are treated with the compound I having concentrations of 0, 0.5, 1 and 2 μM for 24 h, and FIG. 3B illustrates the western blotting results of EMT-related proteins in the breast tumor cells MDA-MB-435, where the breast tumor cells MDA-MB-435 are treated with the compound I having concentrations of 0, 2.5, 5 and 7.5 μM for 24 h. […] Then luminescence image equipment was used, where the PVDF was placed onto a black metal plate by a plastic pincer and the face including protein was upwards, a 1:1 mixed Chemiluminesent Substrate was added into the membrane and the exposure time depends on the fluorescence intensity of antibodies. […]

The subject of assay [2] is breast tumor cells MDA-MB-231. The assay is described as follows: transwell invasion assay. To be noted: 0.5, 1 and 2 μM, 20 h, with increasing concentration. How it is done:
(§1) In the transwell invasion assay, the Matrigel which was a component of ECM was used to imitate the environment between cells. When the cells in a BD Matrigel™ Invasion Chamber were stimulated by growth factors in the Matrigel matrix, the cells secreted some matrix proteolytic enzymes to degrade the Matrigel, so as to facilitate invasion of cells. If the cells had strong invasion capability, the cells can be observed on the filter membrane after staining. In FIG. 15, 800 μl 10% FBS-DMEM was added into the transwell as a chemoattractant, and then 500 μl cells (1×10^5) were planted in the transwell. DMEM culture medium included no FBS and the compound II of 0.5, 1 and 2 μM. The breast tumor cells MDA-MB-231 were then cultured at an atmosphere of 5% CO2 in an incubator at 37° C. for 20 h. Subsequently the cells were stained with Giemsa for 15 min, and observed by taking photographs at a 200× field of an optical microscope. In the test each time each group was represented by a medium value of three repeat transwells. In FIGS. 16A, 16B and 17, the breast tumor cells MDA-MB-231 were replaced by the breast tumor cells MDA-MB-468, the breast tumor cells MDA-MB-435 and the human normal breast cells MCF-10A, respectively. Furthermore, in FIGS. 16A and 16B, the compound II was replaced by the compound I of 0.5, 1 and 2 μM and the compound I of 2.5, 5 and 7.5 μM. In FIG. 17, the compound II was replaced by compound I of 2 μM, TNF-α/TGF-β of 10 ng/ml, and compound I of 2 μM and TNF-α/TGF-β of 10 ng/ml. In the quantitative method of cell migration test, steps included randomly choosing 9 fields at the lower surface of the transwell membrane, counting the total cell number in each field; regarding the medium value of cell number in the 9 fields as an index of chemotaxis migration of breast tumor cells in each transwell, and each group of each test was represented by the medium value of 3 repeat transwells.

Assay [3] deals with breast tumor cells MDA-MB-435. The assay is described as follows: transwell invasion assay. The conditions noted are these: 2.5, 5 and 7.5 μM, with increasing concentration. How it is done:
as §1

Assay [4] relates to breast tumor cells MDA-MB-468. The assay is described as follows: transwell invasion assay. To be noted: 0.5, 1 and 2 μM, with increasing concentration. On the procedure:
as §1

As to `COC1=C(OC)C(=O)C(C)=C(C)C1=O` [compound II], in assay [1], the “expression amount of E-cadherin, occludin and ICAM” value is “increased”; the “expression amount of proteins facilitating tumor cell proliferation (Twist, Snail, vimentin, β-catenin, VEGF)” value was “decreased”. For the same compound, the “migration of breast tumor cells MDA-MB-231 (transwell)” value in assay [2] was “significantly reduced”.

Turning to `COC1=C(OC)C(=O)C(C)=CC1=O` [compound I], the “migration of breast tumor cells MDA-MB-435 (transwell)” value in assay [3] is listed as “also significantly reduced”. In addition, the “migration of breast tumor cells MDA-MB-468 (transwell)” value in assay [4] is on record as “significantly reduced”.
